The source of these data is publication PMC12406255, “Engineering Peptide Modulators for T‑Cell Migration by Structural Scaffold Matching” (Journal of Medicinal Chemistry, 2025).

Each structure is given as a SMILES string. Where two headings read alike, the source gives them in different places. Positions of bridges follow the written chain, without caps; N, C: chain ends. Non-standard residues stand in square brackets, D forms with d. Residues, ends and D or L forms follow the SMILES beside them. Nle = CCCC[C@H](N)C(=O)O

For data set [1], the system named is CD4+ lymphocytes (CD3+, CD4+). Type of data set: cell-based, human. As to conditions: for % Inhibition of cell migration compared to control, CD4+: normalized to untreated control, mean ± SEM of 4-6 experiments.
Data set [2] deals with CD8+ lymphocytes (CD3+, CD8+). In kind it is cell-based, human. As to conditions: for % Inhibition of cell migration compared to control, CD8+: normalized to untreated control, mean ± SEM of 4-6 experiments.
Data set [3] concerns memory CD4+ cells (CD3+, CD4+, CD45RO+). In kind it is cell-based, human. To be noted: for % Inhibition of cell migration compared to control, Memory CD4+: normalized to untreated control, mean ± SEM of 4-6 experiments.
The subject of data set [4] is memory CD8+ cells (CD3+, CD8+, CD45RO+). In kind it is cell-based, human. As to conditions: for % Inhibition of cell migration compared to control, Memory CD8+: normalized to untreated control, mean ± SEM of 4-6 experiments.
The nature of the next data set: Serum stability assay. In kind it is in vitro ADME. As to conditions: human serum of healthy donors, lipids removed by centrifugation, 37 °C, peptide 30-60 μM from 10-fold stock in PBS, followed over 48 h, urea/TFA quench, analytical RP-HPLC peak area vs time 0, one-phase decay fit; mean ± SD, n = 2 (pepitem n = 5); read-out: Serum t 1/2 (converted).
Setting [5] is: from the concentration-response experiment.

Consider `CCCC[C@@H]1NC(=O)[C@H](C(C)C)NC(=O)[C@H](CCCCN)NC(=O)[C@@H](NC(=O)[C@H](CCC(N)=O)NC(=O)[C@H](CCC(=O)O)NC(C)=O)CSSC[C@@H](C(=O)N[C@@H](CCC(=O)O)C(=O)N[C@@H](CCCCN)C(N)=O)NC(=O)[C@H](CC(N)=O)NC(=O)[C@H](CC(=O)O)NC(=O)[C@H](CC(C)C)NC(=O)[C@@H]2CSSC[C@H](NC1=O)C(=O)N[C@@H](Cc1ccc(O)cc1)C(=O)N[C@@H](C)C(=O)N[C@@H](CCC(N)=O)C(=O)NCC(=O)N[C@@H](C)C(=O)N[C@@H](CCC(=O)O)C(=O)N[C@@H](CC(C)C)C(=O)N1CCC[C@H]1C(=O)N[C@@H](CCC(=O)O)C(=O)N[C@@H](CC(C)C)C(=O)N[C@@H](CC(C)C)C(=O)N[C@@H](CCCNC(=N)N)C(=O)N[C@@H](CCCNC(=N)N)C(=O)N2` [VhTI-pep 2] (Ac-EQCKV[Nle]CYAQGAELPELLRRCLDNCEK-NH2; disulfide 3-25, 7-21), for which the “% Inhibition of cell migration compared to control, CD4+” value in data set [1] (0.1 μM) came to 34.3 ± 8.0%; in data set [1] (1 μM), 33.2 ± 6.1%. Besides, the EC50 is 10.5 ± 15.9 nM in data set [1] (EC monolayer pretreated with peptide, healthy-donor PBMC, 4 h, mean ± SD, 4 independent measurements, read-out: EC50, inhibition of CD4+ cell migration); 7.7 ± 11.4 nM in data set [2] (EC monolayer pretreated with peptide, healthy-donor PBMC, 4 h, mean ± SD, 4 independent measurements, read-out: EC50, inhibition of CD8+ cell migration); 9.8 ± 16.5 nM in data set [3] (EC monolayer pretreated with peptide, healthy-donor PBMC, 4 h, mean ± SD, 4 independent measurements, read-out: EC50, inhibition of memory CD4+ cell migration); 6.3 ± 9.7 nM in data set [4] (EC monolayer pretreated with peptide, healthy-donor PBMC, 4 h, mean ± SD, 4 independent measurements, read-out: EC50, inhibition of memory CD8+ cell migration). The “maximal effect of inhibition of cell migration, CD4+ lymphocytes” value in data set [1] (setting [5]) stood at 39.9 ± 12.5%. In addition, the entries for the “% Inhibition of cell migration compared to control, CD8+” value in data set [2] (0.1 μM) and in data set [2] (1 μM) were 37.0 ± 6.4% and 41.7 ± 8.5%, respectively. The “maximal effect of inhibition of cell migration, CD8+ lymphocytes” value in data set [2] (setting [5]) is recorded as 40.0 ± 2.8%. Moreover, the “% Inhibition of cell migration compared to control, Memory CD4+” value was determined as 34.4 ± 16.7% in data set [3] (0.1 μM) and 31.5 ± 10.4% in data set [3] (1 μM). Besides, the “% Inhibition of cell migration compared to control, Memory CD8+” value in data set [4] (0.1 μM) was found to be 23.0 ± 6.9%; in data set [4] (1 μM), 21.9 ± 8.1%. Further, in “Serum stability assay”, the half-life was over 48 h.
